Values joined by “and” are separate entries in the source; they are usually repeats but may differ in a detail not shown here. Equal values may be shown once.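 Exposure lasted 48 hours, with cells grown in 96-well plates and compounds tested at five concentrations. Here, GI50 denotes the concentration required for 50% inhibition of growth. TGI: total growth inhibition.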
Key:
Experiment in all cases: NCI anticancer screen, dose series, 48 h
CAKI-1 renal = tested on: CAKI-1 renal
OVCAR-5 ovarian = tested on: OVCAR-5 ovarian
SW-620 colon = tested on: SW-620 colon
NCI-H23 lung = tested on: NCI-H23 lung
EKVX NSCLC = tested on: EKVX NSCLC
SK-MEL-28 melanoma = tested on: SK-MEL-28 melanoma
HL-60(TB) leukemia = tested on: HL-60(TB) leukemia
SK-MEL-5 melanoma = tested on: SK-MEL-5 melanoma
IGROV1 ovarian = tested on: IGROV1 ovarian
SR leukemia = tested on: SR leukemia

Structure (SMILES)	GI50 (CAKI-1 renal)	TGI (CAKI-1 renal)	GI50 (OVCAR-5 ovarian)	TGI (OVCAR-5 ovarian)	GI50 (SW-620 colon)	TGI (SW-620 colon)	GI50 (NCI-H23 lung)	TGI (NCI-H23 lung)	GI50 (EKVX NSCLC)	TGI (EKVX NSCLC)	GI50 (SK-MEL-28 melanoma)	TGI (SK-MEL-28 melanoma)	GI50 (HL-60(TB) leukemia)	TGI (HL-60(TB) leukemia) [µM]	GI50 (SK-MEL-5 melanoma)	TGI (SK-MEL-5 melanoma)	GI50 (IGROV1 ovarian)	TGI (IGROV1 ovarian)	GI50 (SR leukemia) [µM]	TGI (SR leukemia) [µM]
CN(CC(=O)N(Cc1ccc(C2CCCCC2)cc1)c1ccc(C(=O)O)cc1)S(=O)(=O)c1c(F)c(F)c(F)c(F)c1F	1.93 µM	4.31 µM	10.8 µM	23.8 µM	2.03 µM	4.05 µM	1.92 µM	3.81 µM	1.63 µM	3.58 µM	1.62 µM	3.03 µM	2.08 µM	4.48	1.84 µM	3.58 µM	2.08 µM	4.46 µM	2.64	7.89
COc1ccc(N=N/C(C(=O)C(F)(F)F)=C(\O)c2ccc(Cl)cc2)cc1	3.97 µM	25.5 µM	12.5 µM	> 100 µM	4.36 µM	> 100 µM	11 µM	54.4 µM	9.09 µM	22.3 µM	7.22 µM	> 100 µM	7.11 µM	39.4	3.63 µM	14.3 µM	9.82 µM	> 100 µM	4.26	24.7
Cc1cc(N2CCN(C)CC2)n2nc(-c3ccc(Cl)cc3)nc2n1		> 100 µM		> 100 µM		> 100 µM		> 100 µM		> 100 µM		> 100 µM		> 100		> 100 µM		> 100 µM		> 100
CSC(=Nc1ccccc1)/N=C(\SCc1ccccc1)N(C)C		2.79 µM		2.84 µM		1.83 µM		3.32 µM		3.33 µM		1.79 µM		> 100		2.92 µM		2.45 µM		> 100
O=C1Cc2cc(C(=O)NC3C[C@H]4CC[C@@H](C3)N4S(=O)(=O)CC3CCN(CCCC(F)(F)F)CC3)c(Cl)cc2N1 (stereo partly drawn)	> 100 µM	> 100 µM	> 100 µM	> 100 µM	> 100 µM	> 100 µM	> 100 µM	> 100 µM	> 100 µM	> 100 µM	> 100 µM	> 100 µM	> 100 µM	> 100	> 100 µM	> 100 µM	> 100 µM	> 100 µM	26.5	> 100
COc1cc2cc(Oc3ccc(NC(=O)Nc4ccc(Cl)c(Cl)c4)cc3)c(C)nc2cc1OC	2.12 µM	6.65 µM	10.1 µM	34.3 µM	4.24 µM	15.6 µM	3.36 µM	15.9 µM	2.36 µM	9.51 µM	3.77 µM	14.7 µM	2.76 µM	6.75	2.58 µM	8.09 µM	5.61 µM	46.1 µM	3.1	10.3
CCN(CC)Cc1cc2[nH]c3c4ccc(Cl)cc4ncc3c2cc1OC	3.36 µM and 2.3 µM	9.14 µM and 9.8 µM	12.4 µM and 14.5 µM	25.9 µM and 27.5 µM	2.3 µM and 1.91 µM	6.72 µM and 4.44 µM	6.07 µM and 3.33 µM	20.3 µM and 14.4 µM	12.1 µM and 11.8 µM	24.9 µM and 24.4 µM	1.95 µM and 1.88 µM	3.53 µM and 3.42 µM	5.13 µM and 2.24 µM		1.61 µM and 1.62 µM	3 µM and 2.98 µM	2.13 µM and 3.42 µM	12.4 µM and 13.6 µM	2.36	
